Test results as given in PubChem BioAssay AID248 (DTP/NCI, 2004).
“And” between values parts separate entries of the source, which are not always exact repeats. Equal values may be shown once. Toxic doses and inconclusive results are not listed. Cut-off read from the data, not from the text of the source: active = T/C of 150% or more; inactive = T/C below 125%.

System: L1210 leukemia ip in BDF1 mice, survival T/C
Assay: NCI In Vivo Anticancer Drug Screen. Data for tumor model L1210 Leukemia (intraperitoneal) in B6D2F1 (BDF1) mice
Settings: endpoint: mean survival time, higher = longer survival
In short: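 Transplanted-tumor mice were given test agent; controls received vehicle only. Survival readings from the two groups were divided (treated over control).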

[1] = dose: 100.0 mg/kg/injection, schedule: Q04DX002 (ip), vehicle: Klucel (hydroxypropylcellulose) (HPC)
[2] = dose: 200.0 mg/kg/injection, schedule: Q04DX002 (ip), vehicle: Klucel (hydroxypropylcellulose) (HPC)
[3] = dose: 400.0 mg/kg/injection, schedule: Q04DX002 (ip), vehicle: Klucel (hydroxypropylcellulose) (HPC)
[4] = dose: 25.0 mg/kg/injection, schedule: Q04DX003 (ip), vehicle: saline
[5] = dose: 50.0 mg/kg/injection, schedule: Q04DX003 (ip), vehicle: saline
[6] = dose: 100.0 mg/kg/injection, schedule: Q01DX001 (ip), vehicle: carboxymethylcellulose (CMC)
[7] = dose: 200.0 mg/kg/injection, schedule: Q01DX001 (ip), vehicle: carboxymethylcellulose (CMC)
[8] = dose: 400.0 mg/kg/injection, schedule: Q01DX001 (ip), vehicle: carboxymethylcellulose (CMC)
[9] = dose: 100.0 mg/kg/injection, schedule: Q01DX001 (ip), vehicle: saline
[10] = dose: 200.0 mg/kg/injection, schedule: Q01DX001 (ip), vehicle: saline
[11] = dose: 400.0 mg/kg/injection, schedule: Q01DX001 (ip), vehicle: saline
[12] = dose: 100.0 mg/kg/injection, schedule: Q01DX009 (ip), vehicle: saline with Tween-80
[13] = dose: 100.0 mg/kg/injection, schedule: Q04DX003 (ip), vehicle: saline with Tween-80
[14] = dose: 200.0 mg/kg/injection, schedule: Q04DX003 (ip), vehicle: saline with Tween-80
[15] = dose: 400.0 mg/kg/injection, schedule: Q04DX003 (ip), vehicle: saline with Tween-80
[16] = dose: 25.0 mg/kg/injection, schedule: Q04DX002 (ip), vehicle: Klucel (hydroxypropylcellulose) (HPC)
[17] = dose: 50.0 mg/kg/injection, schedule: Q04DX002 (ip), vehicle: Klucel (hydroxypropylcellulose) (HPC)
[18] = dose: 200.0 mg/kg/injection, schedule: Q01DX009 (ip), vehicle: saline with Tween-80
[19] = dose: 400.0 mg/kg/injection, schedule: Q01DX009 (ip), vehicle: saline with Tween-80
[20] = dose: 100.0 mg/kg/injection, schedule: Q01DX009 (ip), vehicle: Klucel (hydroxypropylcellulose) (HPC)
[21] = dose: 200.0 mg/kg/injection, schedule: Q01DX009 (ip), vehicle: Klucel (hydroxypropylcellulose) (HPC)
[22] = dose: 400.0 mg/kg/injection, schedule: Q01DX009 (ip), vehicle: Klucel (hydroxypropylcellulose) (HPC)
[23] = dose: 50.0 mg/kg/injection, schedule: Q01DX009 (ip), vehicle: saline with Tween-80

Measured: T/C

O=C1c2ccccc2C(=O)N1CC#CCN1C(=O)c2ccccc2C1=O
inactive: [1] 102 % of control | [2] 91 % of control | [3] 112 % of control

Cl/C=C\C[N+]12CN3CN(CN(C3)C1)C2
inactive: [4] 100 % of control | [5] 94 % of control

CCCCC(=O)N/N=C/c1cccc(OC)c1OC
inactive: [6] 92 % of control | [7] 92 % of control | [8] 101 % of control

O=[N+]([O-])c1cc2cnn(CCl)c2cc1[N+](=O)[O-]
inactive: [9] 103 % of control | [10] 111 % of control | [11] 109 % of control

Cc1ccc(C#CP(C#Cc2ccc(C)cc2)C#Cc2ccc(C)cc2)cc1
inactive: [12] 88 % of control

CC(CCC1CCCCC1)c1ccccc1 (configuration not stated) (tested in a mixture with another compound)
inactive: [13] 93 % of control | [14] 96 % of control | [15] 93 % of control

CCOC(=O)N1CCN(Cn2cc3c4c(cccc42)C2CC(C(=O)NC(C)C)CN(C)C2C3)CC1 (configuration not stated)
inactive: dose: 6.25 mg/kg/injection, schedule: Q04DX003 (ip), vehicle: saline 88 % of control | dose: 12.5 mg/kg/injection, schedule: Q04DX003 (ip), vehicle: saline 97 % of control | [4] 100 % of control | [5] 94 % of control | dose: 100.0 mg/kg/injection, schedule: Q04DX003 (ip), vehicle: saline 97 % of control

O=C1c2ccccc2C(=O)N1CC1CO1 (configuration not stated)
inactive: [16] 90 % of control | [17] 93 % of control | [1] 93 % of control

Cc1cc(C)c(Nc2n[nH]c(=S)s2)cc1C
inactive: dose: 100.0 mg/kg/injection, schedule: Q04DX002 (ip), vehicle: saline with Tween-80 87 % of control | dose: 200.0 mg/kg/injection, schedule: Q04DX002 (ip), vehicle: saline with Tween-80 92 % of control | dose: 400.0 mg/kg/injection, schedule: Q04DX002 (ip), vehicle: saline with Tween-80 94 % of control

c1ccc(-c2nnc(-c3ccccn3)s2)nc1
inactive: dose: 50.0 mg/kg/injection, schedule: Q01DX001 (ip), vehicle: water 108 % of control | dose: 100.0 mg/kg/injection, schedule: Q01DX001 (ip), vehicle: water 103 % of control | dose: 200.0 mg/kg/injection, schedule: Q01DX001 (ip), vehicle: water 106 % of control | dose: 400.0 mg/kg/injection, schedule: Q01DX001 (ip), vehicle: water 111 % of control

O=C1CCCc2[nH]c(=O)ccc21
inactive: [9] 101 % of control | [10] 94 % of control | [11] 96 % of control

C/C(=C/C(=O)O)c1ccc([N+](=O)[O-])cc1
inactive: [13] 100 % of control | [14] 96 % of control | [15] 100 % of control

CC(=O)CCN1CCCCC1
inactive: dose: 20.0 mg/kg/injection, schedule: Q04DX003 (ip), vehicle: saline 124 % of control

CS(=O)(=O)Oc1c(Cl)cc(Cl)c2cccnc12
inactive: [6] 102 % of control | [7] 102 % of control | [8] 111 % of control

CN(C)NCCOC(c1ccccc1)c1ccccc1
inactive: [16] 102 % of control | [17] 106 % of control | [1] 95 % of control and 108 % of control

COc1ccc(-c2c(C)c(C(=O)O)nc(-c3ccc4c(O)c(OC)c5c(c4n3)=NC(C)(C)N=5)c2N)c(O)c1OC
inactive: dose: 4.5 mg/kg/injection, schedule: Q01DX Z (ip), vehicle: water 104 % of control | dose: 6.7 mg/kg/injection, schedule: Q01DX Z (ip), vehicle: water 97 % of control | dose: 10.0 mg/kg/injection, schedule: Q01DX Z (ip), vehicle: water 111 % of control | dose: 15.0 mg/kg/injection, schedule: Q01DX Z (ip), vehicle: water 103 % of control

COC(=O)C(CCC(=O)O)NC(=O)C(F)(F)F (configuration not stated)
inactive: dose: 100.0 mg/kg/injection, schedule: Q01DX001 (ip), vehicle: Klucel (hydroxypropylcellulose) (HPC) 89 % of control | dose: 200.0 mg/kg/injection, schedule: Q01DX001 (ip), vehicle: Klucel (hydroxypropylcellulose) (HPC) 97 % of control | dose: 400.0 mg/kg/injection, schedule: Q01DX001 (ip), vehicle: Klucel (hydroxypropylcellulose) (HPC) 89 % of control

C(=N\c1oc(-c2ccccc2)nc1Sc1ccccc1)/c1ccccc1
inactive: [1] 92 % of control | [2] 100 % of control | [3] 96 % of control

CCCCCCCCCCCCCCCCCOc1ccc2ccccc2c1
inactive: dose: 100.0 mg/kg/injection, schedule: Q01DX001 (ip), vehicle: saline with Tween-80 87 % of control | dose: 200.0 mg/kg/injection, schedule: Q01DX001 (ip), vehicle: saline with Tween-80 89 % of control

CCC(N)C(O)C(Cl)(Cl)Cl (configuration not stated)
inactive: [12] 103 % of control | [13] 89 % of control | [18] 98 % of control | [19] 109 % of control

CCC(=O)c1ccc(Cc2ccc(C(=O)CC)cc2)cc1
inactive: dose: 125.0 mg/kg/injection, schedule: Q01DX001 (ip), vehicle: saline 104 % of control | dose: 250.0 mg/kg/injection, schedule: Q01DX001 (ip), vehicle: saline 101 % of control | dose: 500.0 mg/kg/injection, schedule: Q01DX001 (ip), vehicle: saline 93 % of control | dose: 1000.0 mg/kg/injection, schedule: Q01DX001 (ip), vehicle: saline 98 % of control

CC(C)C(C(=O)O)N1C(=O)C2C3C=CC(C3)C2C1=O (configuration not stated)
inactive: [13] 102 % of control | [14] 102 % of control | [15] 97 % of control

COc1ccc(Cl)cc1NC(=O)Oc1cc(C)c(Cl)c(C)c1
inactive: [20] 104 % of control | [21] 95 % of control | [22] 112 % of control

CCOC(=O)C(C(=O)OCC)C1CCS(=O)(=O)C1 (configuration not stated)
inactive: [12] 103 % of control | [18] 96 % of control | [19] 92 % of control

CC(O)C(c1ccccc1)c1ccccc1 (configuration not stated)
inactive: [23] 94 % of control | [12] 102 % of control | [18] 97 % of control

IC1CCCOC1[n+]1ccccc1 (configuration not stated)
inactive: dose: 12.5 mg/kg/injection, schedule: Q01DX009 (ip), vehicle: saline with Tween-80 102 % of control | dose: 12.5 mg/kg/injection, schedule: Q04DX003 (ip), vehicle: saline with Tween-80 96 % of control | dose: 25.0 mg/kg/injection, schedule: Q01DX009 (ip), vehicle: saline with Tween-80 100 % of control | dose: 25.0 mg/kg/injection, schedule: Q04DX003 (ip), vehicle: saline with Tween-80 104 % of control | [23] 103 % of control | dose: 50.0 mg/kg/injection, schedule: Q04DX003 (ip), vehicle: saline with Tween-80 98 % of control

CCc1ccccc1NC(=O)C(c1ccccc1)c1ccccc1
inactive: [20] 100 % of control | dose: 100.0 mg/kg/injection, schedule: Q04DX003 (ip), vehicle: Klucel (hydroxypropylcellulose) (HPC) 100 % of control | [21] 105 % of control | dose: 200.0 mg/kg/injection, schedule: Q04DX003 (ip), vehicle: Klucel (hydroxypropylcellulose) (HPC) 93 % of control | [22] 96 % of control | dose: 400.0 mg/kg/injection, schedule: Q04DX003 (ip), vehicle: Klucel (hydroxypropylcellulose) (HPC) 90 % of control

CC1=CC(C)(C)Nc2ccc(Nc3ccccc3)cc21
inactive: dose: 75.0 mg/kg/injection, schedule: Q01DX001 (ip), vehicle: saline 101 % of control | dose: 150.0 mg/kg/injection, schedule: Q01DX001 (ip), vehicle: saline 96 % of control

Cc1ccc(Cl)c(NC(=O)c2ccc(C(=O)Nc3cc(C)ccc3Cl)cc2)c1
inactive: [20] 87 % of control | [21] 88 % of control | [22] 91 % of control
